# Measured values published in PMC4569695, “Optogenetic manipulation of cGMP in cells and animals by the tightly light-regulated guanylyl-cyclase opsin CyclOp” (Nature Communications, 2015).
# Target: T1, bPGC (Beggiatoa sp. PS, UniProt Z9M4H6XJE9, K200E/D268K/T270G)
# T1 construct: triple mutant of human codon-optimized bPAC, C-terminal YFP, expressed in Xenopus oocytes
# T1 sequence (Z9M4H6XJE9 4-353 K200E/D268K/T270G): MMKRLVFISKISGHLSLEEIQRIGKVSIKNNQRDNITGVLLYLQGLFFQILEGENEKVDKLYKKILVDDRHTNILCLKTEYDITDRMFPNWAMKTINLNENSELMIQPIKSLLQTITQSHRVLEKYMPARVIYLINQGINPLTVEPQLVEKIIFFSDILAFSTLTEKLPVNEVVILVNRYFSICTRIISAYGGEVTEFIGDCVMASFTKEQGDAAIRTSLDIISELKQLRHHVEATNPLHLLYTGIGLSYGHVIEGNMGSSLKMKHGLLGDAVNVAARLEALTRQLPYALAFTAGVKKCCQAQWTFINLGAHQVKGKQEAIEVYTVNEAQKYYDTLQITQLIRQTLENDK
# Assay: cGMP immunoassay, extracts of intact oocytes
# Assay type: cell-based
# Details: endogenous GTP, 464 nm light
structure (smiles),measurement,value
Nc1nc2c(ncn2[C@@H]2O[C@H](COP(=O)(O)OP(=O)(O)OP(=O)(O)O)[C@@H](O)[C@H]2O)c(=O)[nH]1 [GTP],"cGMP immunoassay, extracts of intact oocytes",bPGC produced at least one cAMP for every four cGMP molecules under in vivo conditions
